US8299096B2, “Method for treating pulmonary diseases using rho kinase inhibitor compounds” (priority 2008, dated 2012)
pKi: −log10 of the molar value. Where two headings read alike, the source gives them in different places. One block for each compound: values may come before it.

Columns and labels:
[1] = tested on: ovalbumin-sensitized mice; assay: Bronchodilator assay in ovalbumin-sensitized mouse model of asthma (Penh); type: in vivo; details: for Reduction in airway hyperresponsivness: oral doses
Method: Male BALB/c mice were ordered from Charles River Laboratories (Raleigh, N.C.). The animals were approximately 19 to 21 grams at time of receipt. Upon arrival, the animals were randomized into groups of five males per cage and assigned to a dosing group. Animals were quarantined for 7 days under test conditions. They were observed daily for general health status and ability to adapt to the water bottles.
Animals were sensitized on day 0 and 14 of study by an intraperitoneal injection with 20 μg of ovalbumin (ova) and 2.0 mg aluminum hydroxide (alum) which initiates the development of a specific T-helper (Th) cells type 2 resulting in asthmatic animals. One group of animals received an injection of saline to use as non-asthmatic control animals. All animals were challenged with aerosolized 1% ova once daily for 25 minutes on days 28, 29, and 30 (Zosky, et al. Respiratory Research, 2004; 5:15). Aerosol challenge consists of using an Aerogen Aeroneb nebulizer and controller with a particle size of 4-6 μm mass median aerodynamic diameter (MMAD) with a distribution of 400 μl per minute. This aerosol challenge is necessary to target the Th2-driven allergic inflammation in the lower airways.
The test compounds and the control vehicle were administered to animals on the day of airway hyperreactivity evaluation 30 minutes to 1 hour before the evaluation to determine the bronchodilator effects of the compounds according to the bronchodilator dosing paradigm (FIG. 3A). Compounds were administered p.o. (orally), i.p. (intraperitoneally) at 15 μMol/kg unless otherwise noted (Table 4). Alternatively, compounds were administered i.t. (intratracheally) at varying doses as shown (FIG. 3B). On day 32 of the experiment, airway hyperreactivity was evaluated by placing conscious, unrestrained animals in a whole body plethysmometer (Buxco Wilmington, N.C.) and exposing them to escalating doses of nebulized methacholine, a known bronchial constrictor which acts through the muscarinic receptors of the lungs, (doses: […]-50 mg/ml). Exposure to the methacholine doses consisted of a 3 minute period during which a nebulizer was aerosolizing the methacholine and an additional 3 minute period following the cessation of nebulization. Over this 6 minute period, the plethysmometer monitors and generates numerical values for all parameters of the breath pattern. Enhanced pause (Penh), a unitless index of airway hyperreactivity, is derived from the expiratory side of the respiratory waveform measured via the plethysmograph and is used as an indirect measure of airway resistance and hyperreactivity. […] Following the methacholine dose response, all animals were anesthetized, bled and euthanized.
Within each experiment, a mouse was given a single compound and exposed to increasing doses of methacholine [0 (baseline), 0.375, 0.75, 1.5, 3, 6, 12, 25, 50 mg/ml]. The Penh value at each of the dose levels of methacholine represents the 6-minute average response. Change from baseline (CFB) in Penh was calculated at each methacholine dose and the area under the curve (AUC) for these CFB values was calculated using the trapezoidal rule. This same approach was applied for each mouse across multiple experiments.
For statistical analyses, a linear mixed-effects model where the response was the log 10 transformed value of AUC described above was used. Data from equal experimental conditions across experiments performed on different days were pooled for statistical analysis and data reporting. The various compounds were compared adjusting for the log 10-transformed baseline value of Penh and the chamber (1 of 10) of the plethysmometer each mouse was contained in during an experiment. A random intercept for each experiment was assumed to account for possible similarities of the results obtained from a given experiment (i.e., as a “blocking effect”).
For Table 4 and Table 5, Penh values are reported as log 10 transformed AUC values. […]

[2] = tested on: ovalbumin-sensitized mice; assay: Anti-inflammatory assay in ovalbumin-sensitized mouse model of asthma (BALF cells and cytokines); type: in vivo; details: dosed orally to day 31, anti-inflammatory dosing paradigm
Text: Mouse model of asthma via ovalbumin sensitization was created as described in Example 5. The anti-inflammatory dosing paradigm (FIG. 4) was utilized to evaluate the anti-inflammatory effects of experimental compounds. The anti-inflammatory dosing paradigm consists of dosing the animals once a day starting on day 27 and finishing on either day 30 or 31 (1 hr prior to the aerosolized ovalbumin challenges on days 28 to 30) but not on day 32 when hyper-reactivity evaluation occurs.
Bronchoalveolar lavage fluid (BALF) was collected by infusing 3.0 ml of saline with 10% fetal calf serum into the lungs via the trachea and then withdrawing the fluid. The total amount of cells/ml of BALF fluid was determined via manual cell count on hemocytometer. The BALF was centrifuged, supernatant removed and analyzed for cytokine concentrations as described below, and cell pellet reconstituted in 500 μL of fluid. Cytospin slides were prepared from the cell pellet using 100 μL of fluid and spinning samples for 5 minutes at 5000 rpms in a cytospin centrifuge. Following Hema3 stain, relative percentages of individual leukocytes were determined on a 200 cell count for each sample. The final concentration of individual leukocyte cell types per ml of BALF was determined by multiplication of the relative percentage of individual leukocytes with the total amount of cells/ml of BALF fluid.
The concentrations of cytokines in the BALF samples were determined using commercially available Bio-plex kits (Bio-Rad) for the detection of mouse IL-5, IL-13, and Eotaxin. The analysis of cytokine levels was measured using the Bio-Plex 200 (Bio-Rad) system according to the manufacturer's instructions.

[3] = tested on: ovalbumin-sensitized mice; assay: Prevention of airway hyperreactivity development, anti-inflammatory dosing paradigm (Penh); type: in vivo, mouse; details: for Prevention of airway hyperreactivity: intratracheal, once a day, days 27 to 30 (1.091) or 27 to 31
[4] = Compound plasma concentrations in mice at 15 min post administration; type: in vivo, mouse; details: for concentration at 15 min: mouse
Method: Additionally, compound concentrations were determined in the plasma and lungs of male, ovalbumin-sensitized, Balb/c mice from a murine model of asthma. Test compounds were formulated in water or 1% polysorbate 80 and dosed at 15 μmol/kg for intraperitoneal (IP) or oral (PO) administration or formulated for intratracheal (IT) administration and dosed at 5 μmol/kg, which directly targets the lungs. Following completion of the in vivo study, mice were euthanized and blood and plasma collected approximately 2.5-3 hours post administration of test compound for bronchodialator (BD) studies and 24 hours post administration for anti-inflamatory (AI) studies. Lungs were homogenized in Matrix A lysing tubes using a FastPrep 24 tissue and cell homogenizer (MP Biomedicals, Solon, Ohio). Both plasma samples and lung extracts were assayed for compound concentrations using an on-line, solid phase extraction LC/MS/MS system.

rat tracheal rings = assay: Tracheal relaxation assay, carbachol precontracted rings
Method: Trachea were excised, cleaned of connective tissue and cut into cylindrical segments of 2-3 mm length. Two stainless steel wires were guided through the lumen of the tracheal ring. One wire was fixed in the tissue bath and the other was connected to a force transducer via surgical silk. […] Indomethacin (1 μM), a cyclooxygenase inhibitor, was added to the Krebs buffer and was present throughout the experiments. Contractile tensions were measured using an isometric force transducer (Grass Instruments) and signals were analyzed using specialized software (Chart v5.5, ADInstruments). The preparations were allowed to equilibrate at a resting tension of 0.3 to 0.5 gm prior to two challenges with 60 mM KCl to assess tissue viability. After washing, tissues were treated with 1 μM carbachol for 10 to 15 minutes to induce a contractile response. Test Compounds were added cumulatively to the bath every 30 minutes and reductions in tension were recorded. Basal tension was subtracted from all values and data were reported as a percentage of the maximal carbachol-induced contraction. Data were fit to the Hill equation using GraphPad Prism v5 software.

[5] = Rat oral pharmacokinetics (plasma); type: in vivo
Method: Plasma (EDTA K2 anticoagulant) was collected from male, cannulated, CD Sprague Dawley rats to determine the pharmacokinetics of formulations containing compound inhibitors of Rho kinase. Each animal was dosed orally with a 4 ml/kg solution or suspension of each test compound in 10 mM acetate buffered saline, pH 4.5 at a final concentration range of 20-30 μmol/kg. Blood was collected at 0.25, 0.5, 1, 2, 4, 6, 8, and 24 hours. Plasma samples were assayed for the concentration of the test compound using an on-line, solid phase extraction LC/MS/MS analysis system.
Samples were analyzed on a QSTAR Elite, hybrid quadrupole time-of-flight mass spectrometer (Applied Biosystems, Framingham, Mass.) coupled with a Symbiosis Pharma integrated, on-line SPE-HPLC system (Spark Holland Inc., Plainsboro, N.J.). Analyst QS 2.0 software was used for instrument control, data acquisition and processing. […] Mobile Phase A consisted of 0.1% ammonium hydroxide in water and Mobile Phase B consisted of 0.1% formic acid in acetonitrile. Pharmacokinetic analyses were performed using WinNonlin software version 5.2 (Pharsight Corporation, Mountain View, Calif.).

GCK = target: T1, GCK (Homo sapiens, UniProt Q12851); assay: Kinase panel screen, GCK; type: biochemical; details: 1 μM test compound, 10 μM ATP
T1 construct: purchased Upstate, Millipore Bioscience Division (KinaseProfiler service)
T1 sequence (Q12851 1-820): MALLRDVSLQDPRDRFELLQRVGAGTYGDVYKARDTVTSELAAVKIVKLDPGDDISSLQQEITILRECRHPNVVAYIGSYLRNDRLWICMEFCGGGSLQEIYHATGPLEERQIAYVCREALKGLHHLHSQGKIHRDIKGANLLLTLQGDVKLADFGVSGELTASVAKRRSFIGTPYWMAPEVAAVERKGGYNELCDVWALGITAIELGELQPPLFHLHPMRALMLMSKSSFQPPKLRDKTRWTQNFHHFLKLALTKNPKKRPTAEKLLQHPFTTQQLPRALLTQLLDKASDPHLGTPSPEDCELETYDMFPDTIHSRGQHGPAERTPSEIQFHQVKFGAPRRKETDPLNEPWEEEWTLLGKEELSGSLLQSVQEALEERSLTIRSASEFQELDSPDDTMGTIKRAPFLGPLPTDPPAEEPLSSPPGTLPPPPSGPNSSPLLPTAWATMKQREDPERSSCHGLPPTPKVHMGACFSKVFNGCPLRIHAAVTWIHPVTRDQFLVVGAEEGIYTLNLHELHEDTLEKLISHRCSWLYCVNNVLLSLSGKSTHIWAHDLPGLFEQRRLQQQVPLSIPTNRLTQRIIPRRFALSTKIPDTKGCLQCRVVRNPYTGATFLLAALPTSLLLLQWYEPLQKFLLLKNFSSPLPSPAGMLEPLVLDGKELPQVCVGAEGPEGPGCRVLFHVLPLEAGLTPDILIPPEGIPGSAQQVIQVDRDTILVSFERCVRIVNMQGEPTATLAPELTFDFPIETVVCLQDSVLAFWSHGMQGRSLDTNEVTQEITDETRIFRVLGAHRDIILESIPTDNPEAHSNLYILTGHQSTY
Method: (§1) Compounds of Formulae I and II were examined for activity against a selected panel of kinases using the KinaseProfiler™ enzyme profiling services (Upstate, Millipore Bioscience Division). Percent kinase activity at 10 μM and 1 μM test compound and 10 μM ATP was determined against 40 wild-type recombinant human kinases according to Upstate's standard protocol: ASK1, BTK, CSK, c-RAF, GCK, GSK3β, IKKα, IKKβ, IRAK1, IRAK4, JNK1α1, JNK2α2, JNK3, ERK1, ERK2, MAPKAP-K2, MAPKAP-K3, MEK1, MKK4, MKK6, MKK7β, Mnk2, MSK1, PAK3, PDK1, PRAK, ROCK1, Rsk2, SAPK2a, SAPK2b, SAPK3, SAPK4, SRPK1, SRPK2, Syk, TAK1, TBK1, PI3-Kβ, PI3-Kγ, PI3-Kδ.

Mnk2 = target: T2, Mnk2 (Homo sapiens, UniProt Q9HBH9); assay: Kinase panel screen, Mnk2; type: biochemical; details: 10 μM ATP
T2 construct: purchased Upstate, Millipore Bioscience Division (KinaseProfiler service)
Method: as §1

IRAK1 = target: T3, IRAK1 (Homo sapiens, UniProt P51617); assay: Kinase panel screen, IRAK1; type: biochemical; details: 10 μM ATP
T3 construct: purchased Upstate, Millipore Bioscience Division (KinaseProfiler service)
Method: as §1

IRAK4 = target: T4, IRAK4 (Homo sapiens, UniProt Q9NWZ3); assay: Kinase panel screen, IRAK4; type: biochemical; details: 10 μM ATP
T4 construct: purchased Upstate, Millipore Bioscience Division (KinaseProfiler service)
T4 sequence (Q9NWZ3 1-460): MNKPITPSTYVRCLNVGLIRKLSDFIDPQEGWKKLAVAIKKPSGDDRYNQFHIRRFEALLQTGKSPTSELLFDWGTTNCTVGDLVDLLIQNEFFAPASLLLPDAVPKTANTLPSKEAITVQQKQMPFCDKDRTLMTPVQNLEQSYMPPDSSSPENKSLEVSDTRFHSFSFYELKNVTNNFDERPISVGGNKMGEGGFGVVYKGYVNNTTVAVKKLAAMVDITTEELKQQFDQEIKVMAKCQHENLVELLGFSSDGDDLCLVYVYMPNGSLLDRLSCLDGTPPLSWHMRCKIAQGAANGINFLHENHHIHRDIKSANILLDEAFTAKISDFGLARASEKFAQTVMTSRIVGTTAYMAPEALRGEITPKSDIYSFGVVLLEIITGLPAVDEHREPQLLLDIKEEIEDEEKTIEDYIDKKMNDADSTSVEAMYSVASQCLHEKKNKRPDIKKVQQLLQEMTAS
Method: as §1

ROCK1 = target: T5, ROCK1 (Homo sapiens, UniProt Q13464); assay: Rho kinase inhibition assay (IMAP), ROCK1; type: biochemical
T5 construct: purchased Upstate/Chemicon 14-601
Method: Following the pre-incubation, 10 μM ATP was added to initiate the reaction. After 60 minutes at room temperature, Molecular Devices IMAP™ binding solution was added to bind phosphorylated substrate. After 30 minutes of incubation in the presence of the IMAP™ beads, the fluorescence polarization was read and the ratio was reported as mP. IC50 values for compounds and EC50 values for ATP were calculated using the Prism software from Graphpad.

p70S6K = target: T6, p70S6K (Homo sapiens, UniProt P23443, T412E); assay: p70S6K inhibition assay (IMAP); type: biochemical
T6 construct: purchased Upstate Chemicon 14-486
Method: Inhibition of Akt3 and p70S6K activity was determined using the IMAP™ FP Progressive Binding Kit (Molecular Devices product number R8127). […] Following the pre-incubation, 30 M ATP was added to initiate the reaction. After 60 minutes at RT, Molecular Devices IMAP™ binding solution was added to bind phosphorylated substrate. After 30 minutes of incubation in the presence of the IMAP™ beads the fluorescence polarization was read and the ratio was reported as mP. IC50 results were calculated using the Prism software from Graphpad. The Ki values were determined according to the following formula: Ki=IC50/(1+([ATP Challenge]/EC50 ATP)).

[6] = rat, oral, 20-30 μmol/kg, plasma, mean n = 3
[7] = read-out: ROCK1 Ki, average Ki (Example 1)
[8] = Balb/c, 15 μmol/kg, mean compound plasma concentration in mice at 15 minutes post oral administration, read-out: Mouse Oral PK
[9] = mice, plasma, 15 min post administration (oral dosing), mean of n = 3 mice, read-out: Plasma Mean Concentration
[10] = IMAP FP, human enzyme, Ki=IC50/(1+([ATP Challenge]/EC50 ATP)), read-out: p70S6K Ki, Avg
[11] = average Ki (Example 31), read-out: p70S6K Ki

T6 sequence (P23443 1-421 T412E limits assumed): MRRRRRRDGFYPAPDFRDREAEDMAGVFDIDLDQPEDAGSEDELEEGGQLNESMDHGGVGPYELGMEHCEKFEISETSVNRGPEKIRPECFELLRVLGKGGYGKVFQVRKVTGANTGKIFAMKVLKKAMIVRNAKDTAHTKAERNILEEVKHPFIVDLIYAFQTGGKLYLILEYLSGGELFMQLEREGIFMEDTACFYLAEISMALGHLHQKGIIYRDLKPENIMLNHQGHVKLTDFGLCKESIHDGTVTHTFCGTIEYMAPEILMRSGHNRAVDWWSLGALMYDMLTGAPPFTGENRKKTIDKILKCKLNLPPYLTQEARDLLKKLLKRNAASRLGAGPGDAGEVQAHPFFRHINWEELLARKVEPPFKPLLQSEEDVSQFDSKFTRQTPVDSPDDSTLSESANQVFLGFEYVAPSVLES
T5 sequence (Q13464 17-535 limits assumed): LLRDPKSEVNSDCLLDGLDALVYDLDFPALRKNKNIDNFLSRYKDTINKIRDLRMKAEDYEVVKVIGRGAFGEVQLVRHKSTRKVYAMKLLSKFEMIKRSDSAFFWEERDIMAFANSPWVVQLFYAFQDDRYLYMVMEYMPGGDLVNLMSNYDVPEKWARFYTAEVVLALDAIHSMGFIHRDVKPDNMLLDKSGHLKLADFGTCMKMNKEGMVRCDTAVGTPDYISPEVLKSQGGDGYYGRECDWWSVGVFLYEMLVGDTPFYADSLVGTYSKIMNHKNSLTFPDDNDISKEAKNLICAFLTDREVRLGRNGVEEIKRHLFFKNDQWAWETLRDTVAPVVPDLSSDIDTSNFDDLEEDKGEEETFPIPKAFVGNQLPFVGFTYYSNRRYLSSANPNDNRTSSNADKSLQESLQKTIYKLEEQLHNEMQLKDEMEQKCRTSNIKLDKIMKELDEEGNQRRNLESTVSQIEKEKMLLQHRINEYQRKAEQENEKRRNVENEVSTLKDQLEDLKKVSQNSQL
T3 sequence (P51617 whole entry): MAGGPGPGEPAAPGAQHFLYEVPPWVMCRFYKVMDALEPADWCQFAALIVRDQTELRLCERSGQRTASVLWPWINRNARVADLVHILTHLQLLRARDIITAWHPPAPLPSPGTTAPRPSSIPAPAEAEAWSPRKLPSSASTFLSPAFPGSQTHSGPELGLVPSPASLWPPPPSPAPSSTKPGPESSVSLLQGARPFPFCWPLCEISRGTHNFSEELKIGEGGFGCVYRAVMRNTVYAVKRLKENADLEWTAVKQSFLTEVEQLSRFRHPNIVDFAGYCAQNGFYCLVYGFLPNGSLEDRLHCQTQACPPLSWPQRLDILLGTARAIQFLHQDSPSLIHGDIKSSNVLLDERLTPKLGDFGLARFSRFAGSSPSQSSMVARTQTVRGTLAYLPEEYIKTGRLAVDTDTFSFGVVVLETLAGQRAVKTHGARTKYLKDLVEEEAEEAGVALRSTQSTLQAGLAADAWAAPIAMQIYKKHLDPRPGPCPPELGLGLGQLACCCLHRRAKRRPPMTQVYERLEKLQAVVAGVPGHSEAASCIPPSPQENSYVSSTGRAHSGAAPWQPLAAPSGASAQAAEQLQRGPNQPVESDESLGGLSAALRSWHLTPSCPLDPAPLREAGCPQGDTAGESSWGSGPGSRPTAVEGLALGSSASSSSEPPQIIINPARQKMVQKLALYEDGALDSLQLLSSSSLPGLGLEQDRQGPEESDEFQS
T2 sequence (Q9HBH9 whole entry): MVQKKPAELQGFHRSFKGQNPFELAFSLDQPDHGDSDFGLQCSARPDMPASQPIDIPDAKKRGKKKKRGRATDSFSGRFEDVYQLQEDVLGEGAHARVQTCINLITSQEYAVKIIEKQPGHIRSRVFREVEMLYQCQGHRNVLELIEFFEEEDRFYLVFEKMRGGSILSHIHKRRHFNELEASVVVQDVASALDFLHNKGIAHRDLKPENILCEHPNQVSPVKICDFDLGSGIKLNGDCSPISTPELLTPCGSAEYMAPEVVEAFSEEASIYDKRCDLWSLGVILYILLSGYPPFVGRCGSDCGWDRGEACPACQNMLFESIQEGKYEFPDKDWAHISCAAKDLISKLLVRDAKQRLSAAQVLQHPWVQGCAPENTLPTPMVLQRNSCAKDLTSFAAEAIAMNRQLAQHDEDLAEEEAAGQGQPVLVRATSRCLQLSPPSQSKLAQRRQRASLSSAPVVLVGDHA

SMILES: c1cc2cc(CN3CCC[C@@H](Nc4ccc5[nH]ncc5c4)C3)ccc2o1 [Compound 1.131]
- Reduction in airway hyperresponsivness [1]: statistically significant reduction
- Airway eosinophil infiltration (eosinophils per ml of BALF) [2]: reduced
- Prevention of airway hyperreactivity to metacholine on Day 32 ([3]; oral, 15 μMol/kg once a day during days 27 to 31): prevention of airway hyperreactivity
- Detection in mouse plasma 15 minutes after oral dosing ([4]; mouse plasma, 15 minutes, oral): readily detectable

SMILES: CCc1ccc(CN2CCC[C@@H](Nc3ccc4[nH]ncc4c3)C2)cc1 [Compound 1.136]
- Trachael Ring Contraction (rat tracheal rings; average percentage of carbachol-induced rat trachael ring contraction at 1 μM of test compound): 45%
- Reduction in airway hyperresponsiveness ([1]; i.p. route of administration, compared to oral dosing): enhanced reduction
- Reduction in airway hyperresponsivness [1]: did not yield a significant reduction
- Oral bioavailability ([5]; oral dosing): poor
- AUC (0-last) [5, 6]: below the level of quantification
- Cmax [5, 6]: below the level of quantification

SMILES: NC(=O)Cn1ccc2cc(CN3CCC[C@@H](Nc4ccc5[nH]ncc5c4)C3)ccc21 [Compound 1.162]
- percent inhibition at 1 µM (GCK): 93%
- Percent inhibition, Mnk2 (Mnk2; 1 μM test compound): 111%
- Percent inhibition, Mnk2 (Mnk2; 10 μM test compound): 65%
- Percent inhibition, IRAK1 (IRAK1; 1 μM test compound): 100%
- Percent inhibition, IRAK1 (IRAK1; 10 μM test compound): 97%
- Percent inhibition, IRAK4 (IRAK4; 1 μM test compound): 105%
- Percent inhibition, IRAK4 (IRAK4; 10 μM test compound): 88%

SMILES: Cc1ccc(CN2CCC[C@H](Nc3ccc4[nH]ncc4c3)C2)cc1NS(=O)(=O)N(C)C [Compound 1.237]
- pKi (ROCK1): 6.54
- pKi (ROCK1; [7]): 6.54
- concentration at 15 min [4, 8]: 178 nM
- concentration at 15 min [4, 9]: 178 nM
- pKi (p70S6K; [10]): 5.01
- pKi (p70S6K; [11]): 5.01

SMILES: Cc1ccc(CN2CCC[C@@H](Nc3ccc4[nH]ncc4c3)C2)cc1NS(=O)(=O)N(C)C [Compound 1.262]
- pKi (ROCK1): 7.26
- pKi (ROCK1; [7]): 7.26
- concentration at 15 min [4, 8]: 285 nM
- concentration at 15 min [4, 9]: 285 nM
- pKi (p70S6K; [10]): 5.26
- pKi (p70S6K; [11]): 5.26

Second part, led by results:

- percent inhibition at 1 µM (GCK): 96%
- Percent inhibition, Mnk2 (Mnk2; 1 μM test compound): 108%
- Percent inhibition, Mnk2 (Mnk2; 10 μM test compound): 106%
- Percent inhibition, IRAK1 (IRAK1; 1 μM test compound): 106%
- Percent inhibition, IRAK1 (IRAK1; 10 μM test compound): 99%
- Percent inhibition, IRAK4 (IRAK4; 1 μM test compound): 96%
- Percent inhibition, IRAK4 (IRAK4; 10 μM test compound): 109%
SMILES: Cc1ccc(CN2CCC[C@@H](Nc3ccc4[nH]ncc4c3)C2)cc1OCCO [Compound 1.161]
- Prevention of airway hyperreactivity [3]: prevention of airway hyperreactivity

- percent inhibition at 1 µM (GCK): 39%
- Percent inhibition, Mnk2 (Mnk2; 1 μM test compound): 99%
- Percent inhibition, Mnk2 (Mnk2; 10 μM test compound): 54%
- Percent inhibition, IRAK1 (IRAK1; 1 μM test compound): 74%
- Percent inhibition, IRAK1 (IRAK1; 10 μM test compound): 32%
SMILES: OCCn1ccc2cc(CN3CC[C@@H](Nc4cccc5cnccc45)C3)ccc21 [Compound 2.066]
- Prevention of airway hyperreactivity [3]: prevention of airway hyperreactivity

- IC50, tracheal ring relaxation (rat tracheal rings; carbachol precontracted tissue): could not be obtained
SMILES: O=S(=O)(c1cccc2cnccc12)N1CCCNCC1 [fasudil]
- Percentage of carbachol-induced contraction at 10 μM compound, Avg % (rat tracheal rings; 10 μM compound, 1 μM carbachol precontracted rat trachea rings): least efficacious
